In the supplement of paper PMC11061612:

Legend:
Test in all cases: Bliss excess, mean over the matrix (fraction); higher = more synergy
[1] = test system: OVCAR-8 (Ovarian Carcinoma)
Summary of the method: (§1)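 Cell lines grown in DMEM/F12 or RPMI with 10% FBS were plated in 1536-well plates and held 24 hours at 37°C, 5% CO2 before 72 hours of exposure to two-drug dose matrices, with DMSO typically at 0.2%. CellTiter-Glo 2.0 luminescence gave viability, which was converted to inhibition. Vehicle wells were set to 0 and blank wells to 1. Combination Emax is the second-highest inhibition in the matrix, and Bliss excess is the observed combination effect minus the expected EA + EB − EA·EB, where EA and EB are the single-agent effects.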

NCI-H28 (Mesothelioma) = test system: NCI-H28 (Mesothelioma)
Summary of the method: as §1

SH-4 (Melanoma) = test system: SH-4 (Melanoma)
Summary of the method: as §1

NCI-H2461 (Mesothelioma) = test system: NCI-H2461 (Mesothelioma)
Summary of the method: as §1

[2] = test system: SW1116 (Colorectal Carcinoma)
Summary of the method: as §1

[3] = test system: CAL-51 (Breast Carcinoma)
Summary of the method: as §1

Mewo (Melanoma) = test system: Mewo (Melanoma)
Summary of the method: as §1

[4] = test system: HO-1-u-1 (Oral Cavity Carcinoma)
Summary of the method: as §1

[5] = test system: LB771-HNC (Head and Neck Carcinoma)
Summary of the method: as §1

[6] = test system: KARPAS-231 (B-Cell Non-Hodgkin's Lymphoma)
Summary of the method: as §1

[7] = test system: RPMI-6666 (Non-Cancerous)
Summary of the method: as §1

[8] = test system: CAL-54 (Kidney Carcinoma)
Summary of the method: as §1

[9] = test system: SU-DHL-6 (B-Cell Non-Hodgkin's Lymphoma)
Summary of the method: as §1

[10] = test system: SK-OV-3 (Ovarian Carcinoma)
Summary of the method: as §1

[11] = test system: UMC-11 (Other Solid Carcinomas)
Summary of the method: as §1

[12] = test system: LoVo (Colorectal Carcinoma)
Summary of the method: as §1

[13] = test system: HCC-15 (Squamous Cell Lung Carcinoma)
Summary of the method: as §1

HMV-II (Melanoma) = test system: HMV-II (Melanoma)
Summary of the method: as §1

[14] = test system: PCI-30 (Head and Neck Carcinoma)
Summary of the method: as §1

[15] = test system: EN (Endometrial Carcinoma)
Summary of the method: as §1

SMILES | Bliss excess [1] | Bliss excess (NCI-H28 (Mesothelioma)) | Bliss excess (SH-4 (Melanoma)) | Bliss excess (NCI-H2461 (Mesothelioma)) | Bliss excess [2] | Bliss excess [3] | Bliss excess (Mewo (Melanoma)) | Bliss excess [4] | Bliss excess [5] | Bliss excess [6] | Bliss excess [7] | Bliss excess [8] | Bliss excess [9] | Bliss excess [10] | Bliss excess [11] | Bliss excess [12] | Bliss excess [13] | Bliss excess (HMV-II (Melanoma)) | Bliss excess [14] | Bliss excess [15]
CN(C)CCCOc1ccc(-c2ccc3ncc4c(c3c2)n(C2CCOCC2)c(=O)n4C)cn1 [AZD0156] + CCN(CCO)CCCOc1ccc2c(Nc3cc(CC(=O)Nc4cccc(F)c4)[nH]n3)ncnc2c1 [AZD2811] (first compound max 1 µM, 7x7, partner max 1 µM) | 0.0425 | -0.0381 | -0.0328 | -0.0293 | -0.0339 | 0.0226 | -0.0477 | 0.0299 | -0.0498 | -0.0205 | 0.0312 | -0.0129 | -0.0026 | -0.0533 | -0.0622 | 0.0047 | -0.0506 | -0.0133 | -0.013 | 0.0456
Cn1cnc2c(F)c(Nc3ccc(Br)cc3Cl)c(C(=O)NOCCO)cc21 [Selumetinib] + C[C@@H]1COCCN1C2=NC(=NC(=C2)C3(CC3)[S@](=N)(=O)C)C4=C5C=CNC5=NC=C4 [AZD6738] (first compound max 10 µM, 7x7, partner max 10 µM) | -0.0197 | -0.0096 | -0.0145 | -0.026 | -0.0148 | 0.0209 | -0.0236 | 0.014 | -0.0532 | 0.0287 | -0.0157 | -0.0083 | 0.0102 | -0.0424 | 0.0001 | -0.0381 | 0.0787 | -0.0384 | -0.0327 | -0.0228
NC1(C(=O)N[C@@H](CCO)c2ccc(Cl)cc2)CCN(c2ncnc3[nH]ccc23)CC1 [Capivasertib] + CC(C)n1c(=O)n(C)c2cnc3cc(F)c(-c4ccc(OCCCN5CCCCC5)nc4)cc3c21 [AZD1390] (first compound max 10 µM, 7x7, partner max 0.3 µM) | -0.0304 | -0.0776 | -0.0856 | -0.0579 | -0.0335 | -0.0972 | -0.0597 | -0.0332 | -0.0687 | -0.0035 | -0.08 | -0.0687 | -0.0071 | -0.0754 | -0.0807 | -0.043 | -0.0608 | -0.0435 | -0.0488 | -0.0625
CCN(CCO)CCCOc1ccc2c(Nc3cc(CC(=O)Nc4cccc(F)c4)[nH]n3)ncnc2c1 [AZD2811] + C=CCn1c(=O)c2cnc(Nc3ccc(N4CCN(C)CC4)cc3)nc2n1-c1cccc(C(C)(C)O)n1 [AZD1775] (first compound max 1 µM, partner max 1 µM) | 0.0213 | -0.0541 | -0.0484 | -0.0679 | -0.0275 | 0.0511 | -0.011 | -0.0168 | -0.0295 | 0.0395 | -0.0271 | -0.032 | 0.0537 | -0.068 | 0.0014 | -0.0731 | -0.0049 | -0.0339 | 0.0191 | -0.0426
NC1(C(=O)N[C@@H](CCO)c2ccc(Cl)cc2)CCN(c2ncnc3[nH]ccc23)CC1 [Capivasertib] + Cn1cnc2c(F)c(Nc3ccc(Br)cc3Cl)c(C(=O)NOCCO)cc21 [Selumetinib] (first compound max 10 µM, 7x7, partner max 10 µM) | 0.037 | -0.0231 | -0.0106 | -0.0393 | 0.0203 | 0.0176 | 0.0069 | 0.126 | -0.0595 | -0.0465 | 0.0604 | 0.0079 | 0.0255 | -0.0629 | 0.0032 | -0.004 | 0.0366 | -0.005 | -0.0097 | 0.0288
Cc1c2c(nn1C)CSCc1cc(n(C)n1)CSc1cc(c3ccccc3c1)OCCCc1c(C(=O)O)n(C)c3c-2c(Cl)ccc13 [AZD5991] + C[C@@H]1COCCN1C2=NC(=NC(=C2)C3(CC3)[S@](=N)(=O)C)C4=C5C=CNC5=NC=C4 [AZD6738] (first compound max 1 µM, 7x7, partner max 10 µM) | 0.001 | 0.0026 | 0.0323 | 0.0016 | 0.0515 | 0.0585 | -0.0329 | -0.0074 | 0.0599 | 0.0252 | 0.0272 | -0.0259 | -0.0137 | 0.0538 | -0.0265 | -0.033 | 0.0549 | -0.0496 | 0.0378 | -0.0039
Cn1cnc2c(F)c(Nc3ccc(Br)cc3Cl)c(C(=O)NOCCO)cc21 [Selumetinib] + CC(C)n1c(=O)n(C)c2cnc3cc(F)c(-c4ccc(OCCCN5CCCCC5)nc4)cc3c21 [AZD1390] (first compound max 10 µM, 7x7, partner max 0.3 µM) | -0.0254 | -0.0403 | -0.0993 | -0.0377 | -0.0094 | -0.0271 | -0.0086 | -0.0387 | -0.067 | -0.0101 | -0.0234 | -0.0377 | -0.0323 | -0.0088 | -0.0422 | -0.0325 | 0.0148 | -0.0262 | -0.0208 | -0.0086
CC1(C)CCC(CN2CCN(c3ccc(C(=O)NS(=O)(=O)c4ccc(NCC5CCOCC5)c([N+](=O)[O-])c4)c(Oc4cnc5[nH]ccc5c4)c3)CC2)=C(c2ccc(Cl)cc2)C1 [Venetoclax] + Cn1cnc2c(F)c(Nc3ccc(Br)cc3Cl)c(C(=O)NOCCO)cc21 [Selumetinib] (first compound max 1 µM, 7x7, partner max 3 µM) | -0.0373 | -0.0449 | -0.0306 | -0.0175 | -0.0736 | -0.0088 | -0.0252 | -0.0352 | -0.0555 | -0.177 | 0.0306 | -0.0466 | 0.0155 | -0.0624 | -0.0424 | -0.0458 | 0.0315 | -0.0317 | -0.0429 | -0.0325
COc1cccc(OCCCN)c1-c1cc(Nc2cnc(C#N)cn2)n[nH]1 [Prexasertib] + O=C(c1cc(Cc2n[nH]c(=O)c3ccccc23)ccc1F)N1CCN(C(=O)C2CC2)CC1 [Olaparib] (first compound max 1 µM, 7x7, partner max 10 µM) | -0.0475 | -0.0613 | -0.099 | -0.0891 | -0.0415 | -0.0744 | -0.0708 | -0.109 | -0.0162 | -0.0206 | -0.0352 | -0.0942 | 0.0089 | -0.12 | 0.0014 | -0.129 | 0.0101 | -0.0242 | -0.166 | -0.0336
COc1cccc(OCCCN)c1-c1cc(Nc2cnc(C#N)cn2)n[nH]1 [Prexasertib] + Cc1cc2ncnn2cc1Nc1ncc2c(n1)n(C1CCOCC1)c(=O)n2C [AZD7648] (first compound max 1 µM, 7x7, partner max 10 µM) | 0.0125 | -0.0397 | -0.0545 | -0.0428 | -0.0183 | 0.0069 | -0.0079 | 0.0035 | -0.0088 | 0.0123 | -0.0261 | -0.0483 | 0.0159 | -0.0686 | -0.0692 | -0.0687 | 0.0328 | 0.0203 | -0.0227 | -0.0753
COc1nnc2ccc(N3CCC(c4ccc(OCCN5CCN(C)C(=O)[C@H]5C)cc4)CC3)nn12 [AZD5153] + C[C@@H]1COCCN1C2=NC(=NC(=C2)C3(CC3)[S@](=N)(=O)C)C4=C5C=CNC5=NC=C4 [AZD6738] (first compound max 1 µM, 7x7, partner max 10 µM) | 0.0047 | 0.0141 | -0.0438 | -0.0571 | -0.0165 | 0.0189 | -0.007 | -0.0146 | 0.0467 | -0.0609 | -0.17 | -0.0043 | -0.0505 | -0.0285 | 0.0169 | 0.0603 | 0.069 | 0.0169 | -0.014 | 0.0191
C[C@@H](c1ccc2nccn2c1)n1nnc2ncc(-c3cnn(C)c3)nc21 [Savolitinib] + CC1(C)CCC(CN2CCN(c3ccc(C(=O)NS(=O)(=O)c4ccc(NCC5CCOCC5)c([N+](=O)[O-])c4)c(Oc4cnc5[nH]ccc5c4)c3)CC2)=C(c2ccc(Cl)cc2)C1 [Venetoclax] (first compound max 1 µM, 7x7, partner max 1 µM) | -0.035 | -0.0481 | -0.0535 | -0.0641 | -0.0595 | -0.0522 | -0.0647 | -0.039 | -0.0912 | -0.0344 | -0.0557 | -0.102 | 0.0481 | -0.0511 | -0.0303 | -0.0394 | -0.0229 | -0.0621 | -0.0899 | -0.0643
CN(C)CCCOc1ccc(-c2ccc3ncc4c(c3c2)n(C2CCOCC2)c(=O)n4C)cn1 [AZD0156] + O=C(c1cc(Cc2n[nH]c(=O)c3ccccc23)ccc1F)N1CCN(C(=O)C2CC2)CC1 [Olaparib] (first compound max 3 µM, partner max 3 µM) | 0.0073 | -0.0415 | 0.0237 | -0.0194 | -0.0431 | 0.051 | -0.0711 | 0.0795 | 0.033 | 0.0651 | 0.119 | 0.034 | 0.125 | -0.0179 | 0.0204 | 0.0346 | 0.136 | -0.0287 | -0.0129 | -0.0292
CN(CCO)CC[C@H](CSc1ccccc1)Nc1ccc(S(=O)(=O)NC(=O)c2ccc(N3CCC([C@@H](O)c4ccccc4-c4ccc(Cl)cc4)CC3)cc2)cc1S(=O)(=O)C(F)(F)F [AZD4320] + Cn1cnc2c(F)c(Nc3ccc(Br)cc3Cl)c(C(=O)NOCCO)cc21 [Selumetinib] (first compound max 1 µM, 7x7, partner max 3 µM) | 0.0974 | 0.0103 | 0.107 | 0.0248 | 0.0737 | 0.0502 | 0.0374 | 0.0328 | 0.0178 | -0.006 | -0.0047 | 0.0336 | -0.0145 | -0.0362 | -0.0068 | 0.0195 | 0.0827 | 0.0015 | 0.0023 | -0.0088
C[C@@H](c1ccc2nccn2c1)n1nnc2ncc(-c3cnn(C)c3)nc21 [Savolitinib] + Cc1c2c(nn1C)CSCc1cc(n(C)n1)CSc1cc(c3ccccc3c1)OCCCc1c(C(=O)O)n(C)c3c-2c(Cl)ccc13 [AZD5991] (first compound max 1 µM, 7x7, partner max 1 µM) | -0.0327 | -0.0643 | -0.0252 | -0.048 | -0.0252 | -0.0115 | -0.0237 | -0.034 | -0.054 | -0.0258 | -0.0329 | -0.0337 | -0.013 | -0.0556 | -0.0026 | -0.0331 | -0.0349 | -0.0404 | -0.0878 | -0.0027
